According to ChEMBL document CHEMBL4411271, “New Generation of Selective Androgen Receptor Degraders: Our Initial Design, Synthesis, and Biological Evaluation of New Compounds with Enzalutamide-Resistant Prostate Cancer Activity” (J Med Chem, 2019):

Experiments:
MR49F = test: animal or person; format: functional; conditions: Homo sapiens, po, 336 h, read-out: TGI
Description: Antitumor activity against human MR49F cells xenografted in NSG cells assessed as tumor growth inhibition at 100 mg/kg/day, po for 14 days and measured twice weekly relative to control

in vitro = conditions: mouse, microsomes
Description: Half life in mouse liver microsomes at 50 uM in presence of cofactors for phase 1 and 2 metabolism

[1] = mouse, microsomes, 50 µM

With C[C@](O)(Cn1ccc2cc(F)c(-c3ccccc3)cc21)C(=O)Nc1ccc(C#N)c(Cl)c1 as the molecule, how does the inhibition in vivo at 100 mg/kg/day (MR49F) read?
The inhibition in vivo at 100 mg/kg/day was 40 to 60%.

With C[C@](O)(Cn1ccc2c(F)cccc21)C(=O)Nc1ccc(C#N)c(Cl)c1 as the molecule, how does the inhibition in vivo at 100 mg/kg/day (MR49F) read?
Its inhibition in vivo at 100 mg/kg/day is 40 to 60%.

Which half-life at 50 µM (in vitro) does the source give for C[C@](O)(CN1CCc2cc(F)ccc21)C(=O)Nc1ccc(C#N)c(Cl)c1 here?
Its half-life at 50 µM is 9.16 min.

For C[C@](O)(COc1ccc(C#N)cc1)C(=O)Nc1ccc(C#N)c(C(F)(F)F)c1 [ENOBOSARM], which CLH [1] is on record?
The CLH was 1400 µL/min/mg.
